These results are taken from publication PMC12811501, “A plant-derived antimicrobial peptide with multiple mechanisms of action exhibiting antibacterial and antibiofilm activities comparable to or superior to polymyxin B” (Current Research in Microbial Sciences, 2025).

Residues, ends and D or L forms follow the SMILES beside them. No end group written: not given here.

The experiment has as its system E. coli. The experiment in a line: microbe, parasite or virus in culture. Particulars: for FBC-A: (MBC of Drug A in combination)/(MBC of Drug A alone), combination with NCR169C17–38 (Drug B), checkerboard; for FBC-A / FBC-B / FBC / Action / FBC-B (µM): concentration of Drug B for the indicated action / FBC-A (µM): concentration of Drug A for the indicated action: E. coli; for FBC-A / FBC-A (µM): concentration of Drug A for the indicated action: 3 h 37 °C; for FBC-B: (MBC of NCR169C17–38 in combination)/(MBC alone), value refers to NCR169C17–38 (Drug B) combined with the Drug A; for FBC: FBC index = FBC-A + FBC-B, Drug A combined with NCR169C17–38; for Action: interaction of Drug A with NCR169C17–38 by FBC index; for FBC-B (µM): concentration of Drug B for the indicated action / FBC-A (µM): concentration of Drug A for the indicated action: value in brackets; for FBC-B (µM): concentration of Drug B for the indicated action: concentration of NCR169C17–38 (Drug B) combined with Drug A; for FBC-A (µM): concentration of Drug A for the indicated action: Drug A in combination with NCR169C17–38, checkerboard. The method, then: Streptomycin was tested at concentrations ranging from 25 μM to 0.4 μM, meropenem from 200 μM to 3.1 μM, and polymyxin B from 6.3 μM to 0.1 μM. NCR335N1–19 was tested in a concentration range from 3.1 μM to 0.05 μM, while NCR335C13–33 from 12.5 μM to 0.2 μM. […] The initial E. coli density in each well were adjusted to OD600 = 0.01 corresponding to ∼10^6 bacteria/ml. […] The effectiveness of combination treatments was measured using the fractional bactericidal concentration (FBC) index, which is a metric used to assess the interaction between antimicrobial agents, determining whether their combined effect is synergistic, additive, or antagonistic. First, the MBC values of polymyxin B, meropenem, streptomycin, NCR335N1–19, and NCR335C13–33 were determined in E. coli. Subsequently, their combinations with NCR169C17–38 were examined using the FBC index. FBC = FBCA + FBCB. FBCA = (MBCA in combination) / (MBCA alone); FBCB = (MBCB in combination) / (MBCB alone). Experiments were done in three biological replicates.
The use of multiple antimicrobial agents can simultaneously target different physiological pathways in microbial cells, reducing the likelihood of resistance development and increasing treatment efficacy. To explore this strategy, we assessed the combined antibacterial effects of the NCR169C17–38 peptide with several antibiotics - specifically polymyxin B, meropenem, and streptomycin - against E. coli. […] Combination treatments were then performed using the standard checkerboard titration method, with each agent co-administered with NCR169C17–38.

On to `[H]/N=C(/N)N[C@H]1[C@H](O)[C@@H](O)[C@H](O[C@@H]2O[C@@H](C)[C@](O)(C=O)[C@H]2O[C@@H]2O[C@@H](CO)[C@H](O)[C@@H](O)[C@@H]2NC)[C@@H](N/C(N)=N\[H])[C@@H]1O` [Streptomycin], for which the FBC-A came to 0.5, the FBC-B is 0.5, the FBC is recorded as 1 and the Action result is listed as “Additive (0.5 < FBC < 1.0: additive)”. Further, the “FBC-B (µM): concentration of Drug B for the indicated action” value is on record as 0.8 µM. Further, the MBC (Escherichia coli, 3 h, read-out: Drug A MBC) was 3.12 µM.

Take `CC[C@H](C)[C@H](NC(=O)[C@@H]1CCCN1C(=O)[C@@H](NC(=O)[C@H](CS)NC(=O)[C@H](Cc1ccc(O)cc1)NC(=O)[C@H](CO)NC(=O)[C@H](CCCCN)NC(=O)[C@H](CCCNC(=N)N)NC(=O)[C@H](CS)NC(=O)[C@H](CCCNC(=N)N)NC(=O)[C@@H](NC(=O)[C@H](CC(N)=O)NC(=O)[C@H](C)NC(=O)[C@H](CCCNC(=N)N)NC(=O)[C@H](CCCNC(=N)N)NC(=O)[C@H](CC(C)C)NC(=O)[C@H](CCCCN)NC(=O)[C@@H]1CCCN1C(=O)[C@H](CS)NC(=O)[C@H](CC(=O)O)NC(=O)[C@@H](N)CCCCN)C(C)C)C(C)C)C(N)=O` [NCR335C13–33] (H-KDCPKLRRANVRCRKSYCVPI-NH2; N-terminus and C-terminus assumed): the FBC-A is reported as 0.5, the FBC-B amounted to 0.03, the FBC was found to be 0.5 and the Action result is “Synergism (< 0.5: synergism)”. For the same molecule, the “FBC-A (µM): concentration of Drug A for the indicated action” value came out at 6.25 µM and the “FBC-B (µM): concentration of Drug B for the indicated action” value stood at 0.048 µM. The “Drug A MBC” value (3 h) was found to be 12.5 µM.

Turning to RLNTTFRPLNFKMLRFWGQ-NH2 [NCR335N1–19], the FBC-A is 0.5, the FBC-B was 0.01, the FBC worked out at 0.5 and the Action result is on record as “Synergism (< 0.5: synergism)”. The “FBC-A (µM): concentration of Drug A for the indicated action” value is recorded as 1.6 µM. Where the note is “3 h”, the “Drug A MBC” value came out at 3.125 µM.
